# Assay results as given in ChEMBL document CHEMBL6096703 (J Med Chem, 2025).
# pEC50, pIC50: −log10 of the molar value. Activity calls are given as the source filed them. No cut-off for these calls is given here.
# Columns and labels:
# MDA-MB-436 [1] = experiment: Antitumor activity against luciferase tagged human MDA-MB-436 cells xenografted in female NOD-SCID mouse assessed as median survival time at 3 mg/kg, po administered once a day for 34 days; assay type: functional; conditions: time 34 day
# [2] = Acute toxicity in Kunming mouse assessed as mortality at 100 to 300 mg/kg administered orally via gavage for 14 days; assay type: organism-based; conditions: in vivo, po, 336 h, dose 100-300 mg/kg, time 14 day
# [3] = Half life in male Balb/c mouse at 1 mg/kg, po measured upto 96 hrs by LC-MS/MS analysis; assay type: ADME, organism-based; conditions: in vivo, po, 1 mg/kg, 96 h
# [4] = Acute toxicity in Kunming mouse assessed as change in cellular morphology of kidney at 100 mg/kg administered once every other day via gavage for 14 days by H and E staining based analysis; assay type: organism-based; conditions: in vivo, po, 336 h, time 14 day
# MDA-MB-436 [5] = experiment: Inhibition of colony formation in human MDA-MB-436 cells assessed as reduction in survival rate incubated for 10 days by crystal violet staining based assay; assay type: functional, cell-based; conditions: dose 0.1-100 nM, time 10.0 day
# [6] = Clearance in rat at 2.5 mg/kg, po measured upto 96 hrs by LC-MS/MS analysis; assay type: ADME, organism-based; conditions: in vivo
# [7] = Apparent volume of distribution in male Balb/c mouse at 1 mg/kg, po measured upto 96 hrs by LC-MS/MS analysis; assay type: ADME, organism-based; conditions: in vivo
# [8] = AUC(0 to t) in rat at 2.5 mg/kg, iv measured upto 96 hrs by LC-MS/MS analysis; assay type: ADME, organism-based; conditions: in vivo
# [9] = target: T1, Poly [ADP-ribose] polymerase 2 (Homo sapiens, UniProt Q9UGN5); experiment: Inhibition of PARP2 (unknown origin) preincubated with compound for 10 mins followed by DNA and NAD+ addition and measured after 60 mins by chemiluminescence based envision reader analysis
# [10] = Sub-acute toxicity in Kunming mouse assessed as change ALB2 level at 30 to 100 mg/kg administered via gavage once every other day for 14 days; assay type: organism-based; conditions: in vivo, po, 336 h, dose 30-100 mg/kg, time 14 day
# [11] = target: T1, Poly [ADP-ribose] polymerase 2; experiment: Binding affinity to PARP2 (unknown origin) assessed as DNA trapping activity incubated for 1 hr by Envision 2105 plate reader analysis
# [12] = Half life in male Balb/c mouse at 1 mg/kg, iv measured upto 96 hrs by LC-MS/MS analysis; assay type: ADME, organism-based; conditions: in vivo, iv, 1 mg/kg, 96 h
# [13] = Tmax in rat at 2.5 mg/kg, iv measured upto 96 hrs by LC-MS/MS analysis; assay type: ADME, organism-based; conditions: in vivo
# [14] = Acute toxicity in Kunming mouse assessed as change in body weight at 30 to 100 mg/kg administered via gavage once every other day for 14 days; assay type: organism-based; conditions: in vivo, po, 336 h, dose 30-100 mg/kg, time 14 day
# [15] = Acute toxicity in Kunming mouse assessed as change in kidney structure at 300 mg/kg administered via gavage for 14 days by H and E staining based analysis; assay type: organism-based; conditions: in vivo, po, 336 h, time 14 day
# [16] = Sub-acute toxicity in Kunming mouse assessed as change ALTL level at 100 to 300 mg/kg administered via gavage for 14 days; assay type: organism-based; conditions: in vivo, po, 336 h, dose 100-300 mg/kg, time 14 day
# [17] = Cmax in male Balb/c mouse at 1 mg/kg, po measured upto 96 hrs by LC-MS/MS analysis; assay type: ADME, organism-based; conditions: in vivo
# [18] = Toxicity in female NOD/SCID mouse xenografted with human MDA-MB-436 cells assessed as histological changes in spleen at 3 mg/kg, po administered once every other day for 28 days by H and E staining based analysis; assay type: organism-based; conditions: in vivo, 672 h, time 28 day
# [19] = target: T2, Poly [ADP-ribose] polymerase 1 (Homo sapiens, UniProt P09874); experiment: Inhibition of PARP1 in PARP2 knockout human A549 cells preincubated with compound for 1 hr followed by H2O2 addition and measured after 5 mins by selective targeting PARylation inhibition assay; assay type: cell-based
# [20] = Acute toxicity in Kunming mouse assessed as change in heart structure at 300 mg/kg administered via gavage for 14 days by H and E staining based analysis; assay type: organism-based; conditions: in vivo, po, 336 h, time 14 day
# [21] = Sub-acute toxicity in Kunming mouse assessed as change CK level at 30 to 100 mg/kg administered via gavage once every other day for 14 days; assay type: organism-based; conditions: in vivo, po, 336 h, dose 30-100 mg/kg, time 14 day
# [22] = Tmax in male Balb/c mouse at 1 mg/kg, po measured upto 96 hrs by LC-MS/MS analysis; assay type: ADME, organism-based; conditions: in vivo
# MDA-MB-436 [23] = experiment: Induction of apoptosis in human MDA-MB-436 cells assessed as late apoptotic cells at 100 nM incubated for 3 days by Annexin V/ PI staining based flow cytometry (reference value: 6.57%); assay type: functional; conditions: time 3 day
# [24] = Apparent volume of distribution in rat at 2.5 mg/kg, iv measured upto 96 hrs by LC-MS/MS analysis; assay type: ADME, organism-based; conditions: in vivo, read-out: Vz
# [25] = AUC(0 to t) in male Balb/c mouse at 1 mg/kg, po measured upto 96 hrs by LC-MS/MS analysis; assay type: ADME, organism-based; conditions: in vivo, po, 1 mg/kg, 96 h
# [26] = Sub-acute toxicity in Kunming mouse assessed as change ALB2 level at 100 to 300 mg/kg administered via gavage for 14 days; assay type: organism-based; conditions: in vivo, po, 336 h, dose 100-300 mg/kg, time 14 day
# [27] = Sub-acute toxicity in Kunming mouse assessed as change LDH2 level at 30 to 100 mg/kg administered via gavage once every other day for 14 days; assay type: organism-based; conditions: in vivo, po, 336 h, dose 30-100 mg/kg, time 14 day
# [28] = target: T1, Poly [ADP-ribose] polymerase 2; experiment: Inhibition of PARP2 in PARP1 knockout human A549 cells preincubated with compound for 1 hr followed by H2O2 addition and measured after 5 mins by selective targeting PARylation inhibition assay; assay type: cell-based
# MDA-MB-436 [29] = experiment: Antitumor activity against luciferase tagged human MDA-MB-436 cells xenografted in female NOD-SCID mouse assessed as tumor regression by measuring bioluminescence signal administered orally once a day for 34 days by bioluminescence imaging analysis; assay type: functional, cell-based; conditions: dose 3-10 mg/kg, route po, time 34.0 day
# [30] = AUC(0 to t) in rat at 2.5 mg/kg, po measured upto 96 hrs by LC-MS/MS analysis; assay type: ADME, organism-based; conditions: in vivo
# MDA-MB-436 [31] = experiment: Induction of apoptosis in human MDA-MB-436 cells assessed as late apoptotic cells at 1 nM incubated for 3 days by Annexin V/ PI staining based flow cytometry (reference value: 6.57%); assay type: functional; conditions: time 3 day
# [32] = target: T2, Poly [ADP-ribose] polymerase 1; experiment: Binding affinity to PARP1 (unknown origin) assessed as DNA trapping activity incubated for 1 hr by Envision 2105 plate reader analysis
# MDA-MB-436 [33] = experiment: Induction of cell cycle arrest in human MDA-MB-436 cells assessed as accumulation of cells at G2/M phase at 1 nM incubated for 3 days by PI staining based flow cytometric analysis (Rvb =24.88%); assay type: functional; conditions: time 3 day
# [34] = Clearance in rat at 2.5 mg/kg, iv measured upto 96 hrs by LC-MS/MS analysis; assay type: ADME, organism-based; conditions: in vivo
# DLD-1 = experiment: Induction of DNA damage in BRCA2 knockout human DLD-1 cells assessed as increase in tail intensity at 100 to 1000 nM incubated for 3 days by PI staining based fluorescence microscopic analysis; assay type: functional, cell-based; conditions: dose 100-1000 nM, time 3.0 day
# MDA-MB-436 [35] = experiment: Induction of cell cycle arrest in human MDA-MB-436 cells assessed as accumulation of cells at S phase at 10 nM incubated for 3 days by PI staining based flow cytometric analysis (Rvb =18.94%); assay type: functional; conditions: time 3 day
# [36] = Sub-acute toxicity in Kunming mouse assessed as change CREA2 level at 100 to 300 mg/kg administered via gavage for 14 days; assay type: organism-based; conditions: in vivo, po, 336 h, dose 100-300 mg/kg, time 14 day
# T1 sequence (Q9UGN5 whole entry): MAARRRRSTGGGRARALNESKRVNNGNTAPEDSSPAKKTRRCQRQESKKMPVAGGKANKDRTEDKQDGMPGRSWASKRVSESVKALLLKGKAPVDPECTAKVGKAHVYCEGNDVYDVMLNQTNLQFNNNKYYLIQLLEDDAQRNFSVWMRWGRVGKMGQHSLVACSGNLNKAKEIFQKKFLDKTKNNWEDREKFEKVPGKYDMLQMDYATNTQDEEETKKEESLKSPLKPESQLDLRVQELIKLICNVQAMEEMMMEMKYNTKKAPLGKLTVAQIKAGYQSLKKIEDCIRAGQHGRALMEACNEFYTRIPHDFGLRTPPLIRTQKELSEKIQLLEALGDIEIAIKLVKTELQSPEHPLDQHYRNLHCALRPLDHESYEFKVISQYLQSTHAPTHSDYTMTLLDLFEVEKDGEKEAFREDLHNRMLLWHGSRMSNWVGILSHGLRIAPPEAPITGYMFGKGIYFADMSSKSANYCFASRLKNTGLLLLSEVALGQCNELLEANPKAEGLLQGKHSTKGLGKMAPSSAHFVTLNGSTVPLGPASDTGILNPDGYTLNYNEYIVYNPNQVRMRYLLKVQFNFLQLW
# T2 sequence (P09874 whole entry): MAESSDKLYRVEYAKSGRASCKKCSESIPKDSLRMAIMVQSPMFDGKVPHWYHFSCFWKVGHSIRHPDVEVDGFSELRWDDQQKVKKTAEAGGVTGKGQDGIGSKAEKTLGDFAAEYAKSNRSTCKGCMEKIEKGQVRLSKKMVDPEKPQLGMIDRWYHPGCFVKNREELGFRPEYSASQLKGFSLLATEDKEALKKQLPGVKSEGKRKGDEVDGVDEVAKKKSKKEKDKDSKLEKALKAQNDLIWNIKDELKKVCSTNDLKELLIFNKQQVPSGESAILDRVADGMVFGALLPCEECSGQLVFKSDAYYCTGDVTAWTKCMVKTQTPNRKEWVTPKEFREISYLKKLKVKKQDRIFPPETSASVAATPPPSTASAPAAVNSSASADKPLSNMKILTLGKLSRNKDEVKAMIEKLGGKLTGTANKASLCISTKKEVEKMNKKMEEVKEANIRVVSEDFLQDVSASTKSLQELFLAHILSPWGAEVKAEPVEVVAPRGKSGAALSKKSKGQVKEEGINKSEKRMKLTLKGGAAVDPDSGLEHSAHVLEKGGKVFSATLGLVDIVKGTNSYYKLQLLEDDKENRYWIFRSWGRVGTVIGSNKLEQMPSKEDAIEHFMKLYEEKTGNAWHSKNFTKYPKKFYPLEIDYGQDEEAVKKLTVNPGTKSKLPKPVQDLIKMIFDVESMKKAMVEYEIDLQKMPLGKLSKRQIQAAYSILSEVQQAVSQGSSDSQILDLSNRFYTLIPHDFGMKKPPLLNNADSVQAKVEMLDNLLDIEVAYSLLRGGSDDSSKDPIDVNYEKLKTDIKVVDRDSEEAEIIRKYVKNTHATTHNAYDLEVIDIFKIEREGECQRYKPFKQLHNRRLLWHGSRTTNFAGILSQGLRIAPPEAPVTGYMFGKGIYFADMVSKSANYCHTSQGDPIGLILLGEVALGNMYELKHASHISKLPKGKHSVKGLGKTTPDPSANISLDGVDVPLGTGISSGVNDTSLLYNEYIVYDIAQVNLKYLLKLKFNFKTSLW
smiles,measurement,setting,value
CCc1cc2ncc(CN3CC=C(c4ccc(C#N)cn4)CC3)cc2[nH]c1=O,Survival,MDA-MB-436 [1],>60 days
same,Activity,[2],Non-toxic
same,t1/2,[3],76.07 h
same,Activity,[4],Non-toxic
same,inhibition,MDA-MB-436 [5],Dose-dependent-effect
same,CL/F,[6],0.167 mL/min/kg
same,Vz,[7],0.13 L/kg
same,AUC(0-t) at 96 h,[8],510 µg·h/mL
same,pIC50,[9],6.91
same,Activity,[10],Non-toxic
same,pEC50,[11],5.36
same,t1/2,[12],107.53 h
same,Tmax,[13],4.8 min
same,Activity,[14],Non-toxic
same,Activity,[15],Non-toxic
same,Activity,[16],Non-toxic
same,Cmax,[17],6630 ng/mL
same,Activity,[18],Non-toxic
same,pIC50,[19],9.05
same,Activity,[20],Non-toxic
same,Activity,[21],Non-toxic
same,Tmax,[22],8.33 h
same,Activity,MDA-MB-436 [23],9.92%
same,Vd,[24],0.21 L/kg
same,AUCt,[25],787.38372 µg·h/mL
same,Activity,[26],Non-toxic
same,Activity,[27],Non-toxic
same,pIC50,[28],5.28
same,Activity,MDA-MB-436 [29],Dose-dependent-effect
same,AUC(0-t) at 96 h,[30],520 µg·h/mL
same,Activity,MDA-MB-436 [31],8.18%
same,pEC50,[32],9.05
same,Activity,MDA-MB-436 [33],28.04%
same,clearance,[34],0.167 mL/min/kg
same,Activity,DLD-1,Active
same,Activity,MDA-MB-436 [35],10.18%
same,Activity,[36],Non-toxic
